According to patent US20180244611A1, “Modulators of the Cystic Fibrosis Transmembrane Conductance Regulator Protein and Methods of Use” (AbbVie S.à.r.l., priority 2017, published 2018):

How the values were obtained:
F508delCFTR [1] = molecular target: T1, F508delCFTR (Homo sapiens, UniProt P13569, DEL508-508); test: Cell Surface Expression-Horse Radish Peroxidase (CSE-HRP) assay, test compound with co-corrector; assay type: cell-based; conditions: for EC50: CSE-HRP assay, test compound with 2 μM co-corrector; for Maximum % activity (with co-corrector): maximum at any tested concentration, normalized to on-plate positive control, with 2 μM co-corrector;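 for Maximum % activity (with co-corrector): percent of 2 µM positive control corrector over DMSO; co-corrector is that same compound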
T1 construct: expressed in transfected cells; host or cells: CFBE41o- human lung-derived epithelial cells (CFBE41o-F508delCFTR-HRP), doxycycline-inducible
In short: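 CFBE41o- cells expressing F508delCFTR with HRP in the fourth exofacial loop, induced with 0.5 μg/mL doxycycline for 72 h, then treated 18-24 h at 33° C. with compound (8 points, top 20 μM, 3-fold) plus 2 μM co-corrector. Surface HRP read by luminol luminescence; activity normalised to positive control, EC50 from variable-slope sigmoidal fit.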

F508delCFTR [2] = molecular target: T1, F508delCFTR; test: Cell Surface Expression-Horse Radish Peroxidase (CSE-HRP) assay, test compound without co-corrector; assay type: cell-based; conditions: for EC50: CSE-HRP assay, test compound without co-corrector; for Emax: maximum at any tested concentration, normalized to on-plate positive control, without co-corrector;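 for Emax: percent of on-plate 2 µM positive control corrector response over DMSO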
In short: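 CFBE41o- cells expressing F508delCFTR with HRP in the fourth exofacial loop, induced with 0.5 μg/mL doxycycline for 72 h at 37° C, then exposed to compound alone for 18-24 h at 33° C, 8-point 3-fold series from 20 μM. Surface HRP read by luminol luminescence, normalized to positive corrector control versus DMSO; EC50 from variable-slope sigmoidal fit of three replicate plates.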

T1 sequence (P13569 with tags, fused parts or gaps DEL508-508): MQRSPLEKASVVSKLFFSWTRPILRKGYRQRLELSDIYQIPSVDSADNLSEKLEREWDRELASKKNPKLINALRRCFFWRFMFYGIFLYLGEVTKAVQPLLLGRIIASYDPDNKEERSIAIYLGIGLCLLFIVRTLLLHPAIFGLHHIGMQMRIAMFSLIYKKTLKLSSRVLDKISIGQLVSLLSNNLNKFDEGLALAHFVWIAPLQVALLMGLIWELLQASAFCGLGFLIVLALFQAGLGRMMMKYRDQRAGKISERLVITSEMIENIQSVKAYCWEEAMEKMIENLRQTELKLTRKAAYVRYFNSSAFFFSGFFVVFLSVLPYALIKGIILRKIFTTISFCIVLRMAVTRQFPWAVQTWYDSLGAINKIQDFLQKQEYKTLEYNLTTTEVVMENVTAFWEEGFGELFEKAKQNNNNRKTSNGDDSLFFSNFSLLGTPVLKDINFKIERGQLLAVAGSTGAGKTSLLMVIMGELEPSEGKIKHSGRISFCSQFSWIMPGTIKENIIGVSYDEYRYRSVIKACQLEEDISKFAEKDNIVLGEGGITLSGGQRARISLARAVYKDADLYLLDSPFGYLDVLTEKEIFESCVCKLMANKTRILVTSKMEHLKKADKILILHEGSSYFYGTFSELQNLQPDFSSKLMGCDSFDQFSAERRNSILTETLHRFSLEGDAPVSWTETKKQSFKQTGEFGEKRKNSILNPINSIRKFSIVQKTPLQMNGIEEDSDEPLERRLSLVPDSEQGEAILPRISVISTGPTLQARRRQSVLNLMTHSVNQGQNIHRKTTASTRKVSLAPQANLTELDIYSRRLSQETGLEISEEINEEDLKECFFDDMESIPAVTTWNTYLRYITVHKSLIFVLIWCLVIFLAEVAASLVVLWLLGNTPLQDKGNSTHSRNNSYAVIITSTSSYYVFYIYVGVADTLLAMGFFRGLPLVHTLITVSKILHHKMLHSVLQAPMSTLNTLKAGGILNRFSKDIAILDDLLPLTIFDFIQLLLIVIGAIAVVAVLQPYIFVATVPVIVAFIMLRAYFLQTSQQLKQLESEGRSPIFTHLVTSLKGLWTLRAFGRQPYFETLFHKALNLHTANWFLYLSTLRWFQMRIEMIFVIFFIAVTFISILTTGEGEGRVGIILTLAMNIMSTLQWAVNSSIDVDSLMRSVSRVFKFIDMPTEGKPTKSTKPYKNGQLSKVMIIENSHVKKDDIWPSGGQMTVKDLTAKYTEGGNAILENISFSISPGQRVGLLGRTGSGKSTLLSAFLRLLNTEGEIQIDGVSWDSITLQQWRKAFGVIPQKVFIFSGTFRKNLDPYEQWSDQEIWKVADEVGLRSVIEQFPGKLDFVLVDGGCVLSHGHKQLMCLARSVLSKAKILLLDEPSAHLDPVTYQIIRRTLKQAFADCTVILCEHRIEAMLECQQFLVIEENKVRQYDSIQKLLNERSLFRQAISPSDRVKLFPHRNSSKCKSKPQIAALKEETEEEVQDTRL

| SMILES | EC50 (F508delCFTR [1]) [µM] | Maximum % activity (with co-corrector) (F508delCFTR [1]) | EC50 (F508delCFTR [2]) [µM] | Emax (F508delCFTR [2]) [%] |
| --- | --- | --- | --- | --- |
| CCC1(C(=O)NS(=O)(=O)c2ccc3c(c2)OCCO3)CCc2c(Cl)cccc21 (stereo not drawn) [III-123] | 3 to 10 | ++ (≥150 and <350) | ≥ 10 | < 50 |
| CCC1(C(=O)NS(=O)(=O)c2ccc(Cl)cc2)CCc2c(Cl)cccc21 (stereo not drawn) [III-125] | 3 to 10 | ++ (≥150 and <350) | 3 to 10 | < 50 |
| CCC1(C(=O)NS(=O)(=O)c2c(C)cccc2C(F)(F)F)CCc2c(Cl)cccc21 (stereo not drawn) [III-126] | ≥ 10 | + (<150) | ≥ 10 | < 50 |
| CCC1(C(=O)NS(=O)(=O)C2(C)CC2)CCc2c(Cl)cccc21 (stereo not drawn) [III-128] | 3 to 10 | ++ (≥150 and <350) | 3 to 10 | < 50 |
| CCC1(C(=O)NS(=O)(=O)c2ccc(-c3ccccc3)cc2)CCc2c(Cl)cccc21 (stereo not drawn) [III-129] | 3 to 10 | ++ (≥150 and <350) | ≥ 10 | < 50 |
| CCC1(C(=O)NS(=O)(=O)c2ccc(CN(C)C)cc2)CCc2c(Cl)cccc21 (stereo not drawn) [III-130] | ≥ 10 | + (<150) | ≥ 10 | < 50 |
| CCC1(C(=O)NS(=O)(=O)c2ccc3ncccc3c2)CCc2c(Cl)cccc21 (stereo not drawn) [III-133] | 3 to 10 | ++ (≥150 and <350) | ≥ 10 | < 50 |
| CCC1(C(=O)NS(=O)(=O)c2cnccc2N2CCN(C(C)C)CC2)CCc2c(Cl)cccc21 (stereo not drawn) [III-137] | ≥ 10 | + (<150) | ≥ 10 | < 50 |
| CCC1(C(=O)NS(=O)(=O)c2ccc(C)cc2)CCc2c(Cl)cccc21 (stereo not drawn) [III-139] | < 3 | ++ (≥150 and <350) | < 3 | < 50 |
| CCC1(C(=O)NS(=O)(=O)Cc2ccccc2)CCc2c(Cl)cccc21 (stereo not drawn) [III-140] | ≥ 10 | + (<150) | ≥ 10 | < 50 |
| CCC1(C(=O)NS(=O)(=O)c2cccc3c2C(=O)N(C)C3=O)CCc2c(Cl)cccc21 (stereo not drawn) [III-141] | ≥ 10 | + (<150) | ≥ 10 | < 50 |
| CCC1(C(=O)NS(=O)(=O)c2ccc(OC)cc2)CCc2c(Cl)cccc21 (stereo not drawn) [III-142] | 3 to 10 | ++ (≥150 and <350) | 3 to 10 | < 50 |

The remaining lines, values ahead:

| EC50 (F508delCFTR [1]) [µM] | Maximum % activity (with co-corrector) (F508delCFTR [1]) | EC50 (F508delCFTR [2]) [µM] | Emax (F508delCFTR [2]) [%] | SMILES |
| --- | --- | --- | --- | --- |
| ≥ 10 | + (<150) | ≥ 10 | < 50 | CCC1(C(=O)NS(=O)(=O)c2ccccc2C(F)(F)F)CCc2c(Cl)cccc21 (stereo not drawn) [III-122] |
| ≥ 10 | + (<150) | ≥ 10 | < 50 | CCC1(C(=O)NS(=O)(=O)c2c(C)cccc2Cl)CCc2c(Cl)cccc21 (stereo not drawn) [III-124] |
| ≥ 10 | + (<150) | ≥ 10 | < 50 | CCC1(C(=O)NS(=O)(=O)c2cccc(F)c2C#N)CCc2c(Cl)cccc21 (stereo not drawn) [III-127] |
| ≥ 10 | + (<150) | ≥ 10 | < 50 | CCC1(C(=O)NS(=O)(=O)c2c(C)nn(C)c2Cl)CCc2c(Cl)cccc21 (stereo not drawn) [III-131] |
| 3 to 10 | ++ (≥150 and <350) | ≥ 10 | < 50 | CCC1(C(=O)NS(=O)(=O)c2cccnc2Cl)CCc2c(Cl)cccc21 (stereo not drawn) [III-132] |
| ≥ 10 | + (<150) | ≥ 10 | < 50 | CCC1(C(=O)NS(=O)(=O)c2c(Cl)nc3sccn23)CCc2c(Cl)cccc21 (stereo not drawn) [III-134] |
| ≥ 10 | + (<150) | ≥ 10 | < 50 | CCC1(C(=O)NS(=O)(=O)c2ncccc2C(=O)N(C)C)CCc2c(Cl)cccc21 (stereo not drawn) [III-135] |
| ≥ 10 | + (<150) | ≥ 10 | < 50 | CCC1(C(=O)NS(=O)(=O)C2CCCCC2)CCc2c(Cl)cccc21 (stereo not drawn) [III-136] |
| 3 to 10 | ++ (≥150 and <350) | 3 to 10 | < 50 | CCC1(C(=O)NS(=O)(=O)c2ccccc2OCCN2CCCCC2)CCc2c(Cl)cccc21 (stereo not drawn) [III-138] |
